Experimental data reported in patent publication US11519922B2, “Methods for identifying risk of chemotherapy-induced cardiotoxicity and targeted medical intervention” (Detroit R&D, Inc., priority 2018, dated 2022).
“Also recorded” adds a separate entry of the source.

Tests used:
H9c2 rat cardiomyocytes = assay: BNP mRNA levels in cells by qRT-PCR; assay type: cell-based; conditions: 1 μM DOX 2 hr, normalized by β-actin mRNA
Description: FIGS. 1A and 1B show the effect of doxorubicin (DOX) on H9c2 rat cardiomyocytes. Cells were treated for 2 hr with media containing 1 μM DOX, washed and kept for 2, 6 and 24 hr in media without DOX. BNP mRNA levels in H9c2 cells were assessed by qRT-PCR (A) and cell media was collected and extracted with ethyl acetate for 14,15-DHET analyses using ELISA kit (Detroit R&D) (B). *p<0.05;
Normalized BNP levels were decreased 6 hr and 24 hr after 2 hr of DOX treatment (p<0.05) (FIG. 1A) when cardiomyocyte hypertrophy occurred ([…]).
BNP mRNA was assessed in rat H9c2 cells. […] Results were normalized using β-actin mRNA levels using a rat specific primer (13). Our results have shown that BNP levels were decreased 6 and 24 hr after 2 hr of DOX treatment (FIG. 1A) when cell hypertrophy was detected (FIG. 2).

[1] = tested on: soluble epoxide hydrolase (sEH) in H9c2 cells; assay: sEH protein expression by Western blot; assay type: cell-based, rat; conditions: 1 μM DOX 2 hr, cells harvested at 6 hr; normalized by beta-actin
Description: FIGS. 5A and 5B show the effect of doxorubicin (DOX) on soluble epoxide hydrolase (sEH) expression in rat H9c2 cardiomyocytes cells (A) and NAG-1 (MIC-1, GDF-15), a plasma cardiotoxicity biomarker (B). Panel A, cells harvested at 6 hr with (Lane 2) and without (Lane 1) treatment of doxorubicin (DOX) (2 hr, final concentration 1 μM). Protein expression of sEH, GAPDH and beta-actin expressed in the cells were assessed by Western blot analysis. Expression levels of sEH were normalized by beta-actin protein levels and Panel B, Western blot analysis carried out under non-reducing/non-denaturing condition for NAG-1 protein in plasma samples obtained from healthy subjects (pooled plasma sample, control) and 3 breast cancer patients with cardiovascular disease (cardiotoxicity, Innovative Research);
Increased sEH protein levels after DOX treatment was detected by Western blot analysis using sEH antibody (Detroit R&D) (FIG. 5A).

rat heart tissue [2] = assay: Histological analysis of heart tissue of DOX-treated rats; assay type: in vivo; conditions: DOX 3 mg/kg/week 2 weeks, 2-week recovery, 40× magnification
Description: Heart tissues were dehydrated, imbedded in paraffin and sliced. Slices were incubated in Mayer's hematoxylin reagent (ScyTek) for 5 min and covered with bluing reagent (ScyTek) for 15 seconds and eosin Y (ScyTek) solution for 3 minutes. Images of the rat cardiomyocyte were taken using a Zeiss Axiovert 200 microscope with RT Insight camera and SPOT Advanced Imaging software in 40× magnification at the Microscopy and Imaging Facility at Wayne State University.
Presence of vacuolization in heart tissue, a sign of cardiotoxicity (14), was not observed at 40× magnification.

[3] = DOX 3 months followed by one-year trastuzumab, HER2-positive breast cancer patients, ref (5); cited from earlier work
rat heart tissue [4] = assay: Heart tissue mRNA biomarkers by RT-PCR in DOX-treated female rats; conditions: DOX 3 mg/kg/week 2 weeks, no recovery, normalized by β-actin mRNA
Description: Rats were euthanized at 48 hr (no recovery) or after 2 weeks (2 weeks recovery) following injection of the rats for 2 weeks with saline (control) or DOX (3 mg/kg/week). BNP mRNA levels in heart were assessed by qRT-PCR and results were normalized by β-actin mRNA (A). […] Results expressed as mean±SD (n=4-6). *p<0.05 and **p<0.01;
A study on serum biomarkers to detect risk of chemotherapy-induced cardiotoxicity was carried out using female rats treated with and without DOX (3 mg/kg/week, i.v. for 2 weeks) (no recovery group: Control and DOX, n=6/group) and with a 2-week recovery period (2 weeks recovery group: Control and DOX, n=6/group).
BNP mRNA levels in heart tissues were measured by reverse-transcription/real time PCR (Sybr green) and normalized using β-actin mRNA levels (13).
Heart total RNA was extracted using the TRIzol method, cDNA was synthesized using High Capacity cDNA Reverse Transcript Kit (Applied Biosystems). Levels of mRNA in cardiomyocytes were measured by real time PCR (Sybr green) using rat specific primers.

[5] = tested on: plasma of breast cancer patients; assay: Plasma 14,15-DHET by ELISA in breast cancer patients before and after DOX
Description: Plasma samples were extracted using ethyl acetate and levels of 14,15-DHET were assessed in triplicate for ELISA.
A blind test for the early biomarker, 14,15-DHET (metabolite of sEH), was carried out with plasma samples from 5 breast cancer patients obtained before and after 3 months of DOX treatment (FIG. 4).
Fatty acids in the plasma samples (50 μl/sample) were extracted with ethyl acetate and levels of 14,15-DHET were assessed in triplicate samples using an ELISA kit from Detroit R&D.
Plasma samples from 5 breast cancer patients obtained before (n=5) and after (n=5) 3 months of DOX treatment (60 mg/m^2/injection for 4 injections).
Biologically active fatty acids in the plasma samples (50 μl/sample) were extracted with ethyl acetate, dried and re-suspended with 30 μl of DMF followed by dilution buffer to 900 μl. Levels of 14,15-DHET were assessed in triplicate using an ELISA kit from Detroit R&D (100 μl/well).

In the case of COc1cccc2c1C(=O)c1c(O)c3c(c(O)c1C2=O)C[C@@](O)(C(=O)CO)C[C@@H]3O[C@H]1C[C@H](N)[C@H](O)[C@H](C)O1 [DOX, doxorubicin], the “increase of BNP mRNA” value (H9c2 rat cardiomyocytes; 2 hr recovery) is reported as roughly 4 fold, the “BNP mRNA levels” value (H9c2 rat cardiomyocytes; 6 hr and 24 hr recovery) is reported as “decreased; also recorded: lower than control” and the sEH protein levels [1] is reported as “Increased”. The “vacuolization / heart tissue damage (histology)” value (rat heart tissue [2]) was “no vacuolization or heart tissue damage; also recorded: not observed”, the “cardiac dysfunction including symptomatic heart failure (HF)” value [3] was 18% and the “Heart tissue BNP mRNA” value (rat heart tissue [4]) was “No change”. For the same compound, the “Heart tissue MPO mRNA” value (rat heart tissue [4]) was “No change”, the “Heart tissue S100A9 mRNA” value (rat heart tissue [4]) was “No change” and the “increase of plasma 14,15-DHET” value ([5]; Patient #3, after vs before 3 months of DOX treatment) was roughly 38%. For the same compound, the “increase of plasma 14,15-DHET” value ([5]; Patient #4, after vs before 3 months of DOX treatment) was roughly 55% and the “plasma 14,15-DHET levels” value ([5]; Patients #2 and #5, after vs before 3 months of DOX treatment) was “did not significantly increase”.
